Where a name gives a salt, the structure may show the parent alone. Read-outs that look alike come from different tables or passages of the source. Values belong to the molecule of their own block, whether it stands above or below them.
Legend:
[1] = test system: Human herpesvirus 5 (HCMV); assay: Antiviral activity assay (0.1–1000 µM), IC50, plaque reduction; assay type: cell-based; settings: Human betaherpesvirus 5, 20 PFU/well
Method: (§1) Antiviral properties of compounds 1e–1g, 1e[PF6], 8a–8d, and 9a were assessed against five viruses: Human herpesvirus 1 (HSV-1, VR-539), Human parainfluenza virus type 3 (HPIV-3, VR-93), Human adenovirus 5 (AdV5, VR-5), Human herpesvirus 5 (HCMV, VR-977), and Encephalomyocarditis virus (EMCV, VR-1479). Viruses were purchased from the American Type Culture Collection (ATCC, Manassas, VA, USA).
(§2) All tested compounds were dissolved in DMSO (dimethyl sulfoxide, Sigma-Aldrich, Darmstadt, Germany) and then suspended in Minimum Essential Medium (MEM; Sigma-Aldrich, Darmstadt, Germany) supplemented with 2% heat-inactivated fetal bovine serum (FBS; Sigma-Aldrich, Darmstadt, Germany), 2 mM L-glutamine (Sigma-Aldrich, Darmstadt, Germany), and 100 units/mL penicillin G with […] streptomycin (Sigma-Aldrich, Darmstadt, Germany).
(§3) Investigated cells were propagated in Minimum Essential Medium (MEM; Sigma-Aldrich, Darmstadt, Germany) supplemented with 10% heat-inactivated fetal bovine serum (FBS; Sigma-Aldrich, Darmstadt, Germany) and 100 units/mL penicillin G with […] streptomycin (Sigma-Aldrich, Darmstadt, Germany). After reaching 80–90% confluency, cells were harvested with trypsin (Life Technologies, Warsaw, Poland) and seeded into 96-well microplates at 2 × 10^5 cells/mL after overnight incubation of cells at 37 °C in a humidified atmosphere containing 5% CO2.
(§4) The culture medium was removed from confluent cells grown in 96-well microplates, and the cells were inoculated with virus solutions in MEM supplemented with 2% FBS and antibiotics (HSV-1 MOI 0.005, 1000 virions/mL; HPIV-3 MOI 0.01, 2000 virions/mL; AdV5 MOI 0.005, 1000 virions/mL; EMCV 0.005, 1000 virions/mL; HCMV 20 PFU/well (plaque-forming units per well). After a 1-h (HSV-1, HPIV-3, AdV5, and EMCV) or 2-h adsorption period (HCMV), residual viral particles were removed, and infected cells were further incubated with MEM supplemented with 2% FBS containing compound concentrations in the range from 0.1 to 1000 µM [38]. All experiments were carried out in triplicate. The cell monolayers were incubated with the investigated compounds at 37 °C in a humidified atmosphere containing 5% CO2 until a cytopathic effect (CPE) was visible. Viral infection was evaluated by the MTT assay (as described previously) or plaque reduction assay. HCMV plaques were counted under an inverted microscope, Olympus IX73 (Olympus, Tokyo, Japan). Antiviral activity was expressed as the concentration required to reduce the number of viral plaques to 50% of the control (virus-infected but untreated).

[2] = test system: Human adenovirus 5 (AdV5); assay: Antiviral activity assay (0.1–1000 µM), IC50; assay type: cell-based; settings: Human mastadenovirus C; AdV5, MOI 0.005; read-out: IC50 AdV5
Method: as §1, §2, §3, §4

[3] = test system: Human herpesvirus 1 (HSV-1); assay: Antiviral activity assay (0.1–1000 µM), IC50; assay type: cell-based; settings: Human alphaherpesvirus 1; HSV-1, MOI 0.005
Method: as §1, §2, §3, §4

[4] = test system: Encephalomyocarditis virus (EMCV); assay: Antiviral activity assay (0.1–1000 µM), IC50; assay type: cell-based; settings: Cardiovirus A, MOI 0.005, read-out: IC50 EMCV
Method: as §1, §2, §3, §4

[5] = test system: Human parainfluenza virus type 3 (HPIV-3); assay: Antiviral activity assay (0.1–1000 µM), IC50; assay type: cell-based; settings: Human respirovirus 3, HPIV-3, MOI 0.01; read-out: IC50 HPIV-3
Method: as §1, §2, §3, §4

[6] = Cytotoxicity screening at 10 µM (MTT); assay type: cell-based, Human; settings: human, HeLa cells, read-out: Cell line (viability %) HeLa
[7] = test system: Human adenovirus 5 (AdV5); assay: Antiviral screening at 10 µM; assay type: cell-based; settings: Human mastadenovirus C, AdV5-infected cells, read-out: Cell line (viability %) AdV5
Method: as §1, with “1a, 1c, 1a[PF6], 1c[PF6], 9b[PF6], 9c[PF6], 10a–10d, 2a,” for “1e–1g, 1e[PF6], 8a–8d,”, “2b” for “9a”
as §2
(§5) Vero, LLC-MK2, NCTC clone 929, MRC-5, and HeLa cells were propagated in Minimum Essential Medium (MEM; Sigma-Aldrich, Darmstadt, Germany) supplemented with 10% heat-inactivated fetal bovine serum (FBS; Sigma-Aldrich, Darmstadt, Germany) and 100 units/mL penicillin G with […] streptomycin (Sigma-Aldrich, Darmstadt, Germany). Upon reaching 80–90% confluency, cells were harvested with 0.25% trypsin in 1 mM EDTA (Life Technologies, Warsaw, Poland) and seeded onto 96-well microplates at 2 × 10^5 cells/mL. After overnight incubation of cells at 37 °C in a humidified atmosphere containing 5% CO2, the culture medium was removed, and cells were inoculated with the respective virus solution in MEM supplemented with 2% FBS and antibiotics (HSV-1 MOI 0.005, 1000 virions/mL; HPIV-3 MOI 0.01, 2000 virions/mL; AdV5 MOI 0.005, 1000 virions/mL, EMCV MOI 0.005, 1000 virions/mL, HCMV 20 PFU (plaque forming units) per well). After a 1-h (HSV-1, HPIV-3, AdV5, and EMCV) or 2-h adsorption period (HCMV), the residual virus was removed, and the infected cells were further incubated with a 100 μL freshly prepared solution of tested compounds diluted with a maintenance medium supplemented with 2% FBS to obtain compound concentrations of 10 µM. The final concentration of DMSO in the medium was 0.1%. All experiments were carried out in triplicate. The cells monolayers were incubated with the compounds at 37 °C in a humidified atmosphere containing 5% CO2 until the typical cytopathic effect (CPE) was visible. Viral infection was evaluated by the MTT assay or plaque reduction assay (HCMV). After incubation with drugs, the cells were treated with 3-(4,5-dimethylthiazol-2-yl)-2,5-diphenyltetrazolium bromide dye solution (MTT, Sigma-Aldrich, Darmstadt, Germany) (25 μL, 5 mg/mL) for 2 h and lysed with solvent solution (100 μL) containing: DMF (Sigma-Aldrich, Darmstadt, Germany) (45 mL), SDS (Sigma-Aldrich, Darmstadt, Germany) (13.5 g), and distilled water (55 mL). After overnight incubation at 37 °C, the optical density at 550 nm and a reference wavelength of 670 nm were measured on a microplate spectrophotometer, Varioskan Lux (Thermo Fisher Scientific, Waltham, MA, USA). The number of HCMV plaques was counted under an inverted microscope Olympus IX73 (Olympus, Tokyo, Japan).

[8] = test system: Human herpesvirus 1 (HSV-1); assay: Antiviral screening at 10 µM; assay type: cell-based; settings: Human alphaherpesvirus 1, antiviral screening, HSV-1-infected cells, read-out: Cell line (viability %) HSV-1
Method: as §1, with “1a, 1c, 1a[PF6], 1c[PF6], 9b[PF6], 9c[PF6], 10a–10d, 2a,” for “1e–1g, 1e[PF6], 8a–8d,”, “2b” for “9a”
as §2, §5

[9] = test system: Encephalomyocarditis virus (EMCV); assay: Antiviral screening at 10 µM; assay type: cell-based; settings: Cardiovirus A, EMCV-infected cells, read-out: Cell line (viability %) EMCV
Method: as §1, with “1a, 1c, 1a[PF6], 1c[PF6], 9b[PF6], 9c[PF6], 10a–10d, 2a,” for “1e–1g, 1e[PF6], 8a–8d,”, “2b” for “9a”
as §2, §5

[10] = test system: Human parainfluenza virus type 3 (HPIV-3); assay: Antiviral screening at 10 µM; assay type: cell-based; settings: Human respirovirus 3, antiviral screening, HPIV-3-infected cells, read-out: Cell line (viability %) HPIV-3
Method: as §1, with “1a, 1c, 1a[PF6], 1c[PF6], 9b[PF6], 9c[PF6], 10a–10d, 2a,” for “1e–1g, 1e[PF6], 8a–8d,”, “2b” for “9a”
as §2, §5

[11] = test system: Human herpesvirus 5 (HCMV); assay: Antiviral screening at 10 µM, plaque reduction; assay type: cell-based; settings: Human betaherpesvirus 5, antiviral screening, HCMV-infected cells, read-out: Cell line (viability %) HCMV
Method: as §1, with “1a, 1c, 1a[PF6], 1c[PF6], 9b[PF6], 9c[PF6], 10a–10d, 2a,” for “1e–1g, 1e[PF6], 8a–8d,”, “2b” for “9a”
as §2, §5

[12] = Cytotoxicity screening at 10 µM (MTT); assay type: cell-based, Human; settings: human, MRC-5 cells, read-out: Cell line (viability %) MRC-5
[13] = Cytotoxicity screening at 10 µM (MTT); assay type: cell-based, Mus musculus; settings: Mus musculus, NCTC clone 929 cells, read-out: Cell line (viability %) NCTC clone 929
[14] = Cytotoxicity screening at 10 µM (MTT); assay type: cell-based, Cercopithecus aethiops; settings: Cercopithecus aethiops, Vero cells, read-out: Cell line (viability %) Vero
[15] = Cytotoxicity screening at 10 µM (MTT); assay type: cell-based, Macaca mulatta; settings: Macaca mulatta, LLC-MK2 cells, read-out: Cell line (viability %) LLC-MK2

melting point: 107 to 110 °C
SMILES: FC(F)(F)c1cccc(Cn2c[n+](OCc3ccccc3)c(-c3ccccc3)c2-c2ccccc2)c1.[Br-]

melting point: 132 to 134 °C
SMILES: COc1cccc(CO[n+]2cn(Cc3cccc(C(F)(F)F)c3)c(-c3ccccc3)c2-c2ccccc2)c1.[Br-]

melting point: 156 to 158 °C
SMILES: Cc1cc(C)cc(CO[n+]2cn(Cc3cccc(C(F)(F)F)c3)c(-c3ccccc3)c2-c2ccccc2)c1.[Br-]

melting point: 110 to 112 °C
SMILES: Cc1c(C)[n+](Cc2ccccc2)cn1Cc1cccc(F)c1 (as salt: phosphate) [1e[PF6]] [1-Benzyl-3-(3-fluorobenzyl)-4,5-dimethylimidazolium hexafluorophosphate]

IC50 [1]: > 150 µM | IC50 [2]: > 80 nM | IC50 [3]: > 56.3 µM | IC50 [4]: > 148 µM | IC50 [5]: > 150 µM
SMILES: Cc1c(C)[n+](Cc2ccccc2)cn1Cc1cccc(F)c1 [1e[PF6], 1-Benzyl-3-(3-fluorobenzyl)-4,5-dimethylimidazolium hexafluorophosphate]

SMILES: c1ccc(Cn2c[n+](Cc3ccccc3)c(-c3ccccc3)c2-c2ccccc2)cc1 [9b[PF6]]
viability at 48 h, 10 µM [6]: 6.8% | viability at 10 µM [7]: 13.9% | viability at 10 µM [8]: 11.7% | viability at 10 µM [9]: 9.3% | viability at 10 µM [10]: 12% | viability at 10 µM [11]: 6.3% | viability at 48 h, 10 µM [12]: 12.8% | viability at 48 h, 10 µM [13]: 4.1% | viability at 48 h, 10 µM [14]: 6.7% | viability at 48 h, 10 µM [15]: 8%
